Measurements taken from ChEMBL document CHEMBL1949508, “The selective cytotoxic activity in breast cancer cells by an anthranilic alcohol-derived acyclic 5-fluorouracil O,N-acetal is mediated by endoplasmic reticulum stress-induced apoptosis” (Eur J Med Chem, 2012).
Activity calls are given as the source filed them. No cut-off for these calls is given here.

Experiments:
[1] = tested on: MCF7; assay: Upregulation of BNIP3L gene in human MCF7 cells at 1.09 uM after 48 hrs by microarray hybridization relative to control; type: functional
[2] = Therapeutic index, ratio of IC50 for human MCF10A cells to IC50 for human MCF7 cells; type: cell-based; settings: MCF10A cells and MCF7 cells, read-out: Ratio IC50
[3] = Antiproliferative activity against human MCF10A cells assessed as viable cells at 37.67 uM after […] by SRB assay (reference value: 98.46 +/- 3.2%); type: cell-based, MCF-10A; settings: read-out: Activity
[4] = tested on: MCF-10A; assay: Upregulation of BBC3 gene in human MCF10A cells at 37.67 uM after 48 hrs by microarray hybridization relative to control; type: functional, cell-based
[5] = tested on: MCF7; assay: Induction of apoptosis in human MCF7 cells assessed as late apoptotic cells at 1.09 uM after 48 hrs by annexinV-FITC/PI-based flow cytometry (reference value: 0.11 +/- 0.02%); type: functional
[6] = tested on: MCF-10A; assay: Downregulation of CARD9 gene in human MCF10A cells at 37.67 uM after 48 hrs by microarray hybridization relative to control; type: functional, cell-based
[7] = tested on: MCF-10A; assay: Downregulation of TP5313 gene in human MCF10A cells at 37.67 uM after 48 hrs by microarray hybridization relative to control; type: functional, cell-based
[8] = tested on: MCF7; assay: Induction of apoptosis in human MCF7 cells assessed as apoptotic cells at 1.09 uM after 48 hrs by annexinV-FITC/PI-based flow cytometry relative to control; type: functional
[9] = tested on: MCF7; assay: Downregulation of E2F1 gene in human MCF7 cells at 1.09 uM after 48 hrs by microarray hybridization relative to control; type: functional
[10] = tested on: MCF7; assay: Upregulation of NOXA gene in human MCF7 cells at 1.09 uM after 48 hrs by quantitative RT-PCR analysis; type: functional, cell-based
[11] = tested on: MCF-10A; assay: Downregulation of BAG2 gene in human MCF10A cells at 37.67 uM after 48 hrs by microarray hybridization relative to control; type: functional, cell-based
[12] = tested on: MCF-10A; assay: Induction of apoptosis in human MCF10A cells assessed as apoptotic cells at 37.67 uM after 48 hrs by annexinV-FITC/PI-based flow cytometry relative to control; type: cell-based
[13] = tested on: MCF7; assay: Downregulation of CCL2 gene in human MCF7 cells at 1.09 uM after 48 hrs by microarray hybridization relative to control; type: functional
[14] = tested on: MCF7; assay: Antiproliferative activity against human MCF7 cells assessed as cell viability at 1.09 uM after […] by SRB assay (reference value: 96.35 +/- 1.32%); type: functional; settings: read-out: Activity
[15] = tested on: MCF7; assay: Upregulation of BBC3 protein expression in human MCF7 cells at […] after 48 hrs by Western blot analysis relative to control; type: functional
[16] = tested on: MCF-10A; assay: Upregulation of GADD45A gene in human MCF10A cells at 37.67 uM after 48 hrs by microarray hybridization relative to control; type: functional, cell-based
[17] = tested on: MCF-10A; assay: Upregulation of BNIP3 gene in human MCF10A cells at 37.67 uM after 48 hrs by microarray hybridization relative to control; type: functional, cell-based
[18] = tested on: MCF-10A; assay: Downregulation of UNC5C gene in human MCF10A cells at 37.67 uM after 48 hrs by microarray hybridization relative to control; type: functional, cell-based
[19] = tested on: MCF-10A; assay: Upregulation of BNIP3L gene in human MCF10A cells at 37.67 uM after 48 hrs by microarray hybridization relative to control; type: functional, cell-based
[20] = tested on: MCF-10A; assay: Upregulation of NOXA gene in human MCF10A cells at 37.67 uM after 48 hrs by microarray hybridization relative to control; type: functional, cell-based
[21] = tested on: MCF-10A; assay: Upregulation of BBC3 protein expression in human MCF10A cells at 37.67 uM after 48 hrs by Western blot analysis relative to control; type: functional
[22] = tested on: MCF7; assay: Modulation of p53 gene expression in human MCF7 cells at 1.09 uM after 48 hrs by quantitative RT-PCR analysis; type: functional, cell-based
[23] = tested on: MCF7; assay: Downregulation of FAIM gene in human MCF7 cells at 1.09 uM after 48 hrs by microarray hybridization relative to control; type: functional
[24] = tested on: MCF-10A; assay: Induction of necrosis in human MCF10A cells assessed as necrotic cells at 37.67 uM after 48 hrs by annexinV-FITC/PI-based flow cytometry (reference value: 0.6 +/- 0.13%); type: cell-based
[25] = tested on: MCF-10A; assay: Downregulation of CD14 gene in human MCF10A cells at 37.67 uM after 48 hrs by microarray hybridization relative to control; type: functional, cell-based
[26] = tested on: MCF7; assay: Upregulation of NOXA gene in human MCF7 cells at 1.09 uM after 48 hrs by microarray hybridization relative to control; type: functional
[27] = tested on: MCF-10A; assay: Downregulation of BCL2 gene in human MCF10A cells at 37.67 uM after 48 hrs by microarray hybridization relative to control; type: functional, cell-based
[28] = tested on: MCF-10A; assay: Upregulation of CARD14 gene in human MCF10A cells at 37.67 uM after 48 hrs by microarray hybridization relative to control; type: functional, cell-based
[29] = tested on: MCF-10A; assay: Downregulation of AVEN gene in human MCF10A cells at 37.67 uM after 48 hrs by microarray hybridization relative to control; type: functional, cell-based
[30] = tested on: MCF7; assay: Upregulation of GADD45A gene in human MCF7 cells at 1.09 uM after 48 hrs by microarray hybridization relative to control; type: functional
[31] = tested on: MCF7; assay: Modulation of Apaf-1 gene expression in human MCF7 cells at 1.09 uM after 48 hrs by quantitative RT-PCR analysis; type: functional, cell-based

With COC(CN(c1ccccc1CO)S(=O)(=O)c1ccccc1N)n1cc(F)c(=O)[nH]c1=O (racemic) the “fold change (FC)” value [1] was 2.84, the selectivity ratio [2] was 34.5 and the viability at 37.67 µM [3] was 30.9%. For the same compound, the Activity [4] was “inactive”, the Activity [5] was 77.4% and the Activity [6] was “inactive”. For the same compound, the Activity [7] was “inactive”, the Activity [8] was 90.73% and the “fold change (FC)” value [9] was -2.61. The Activity [10] was “Active”, the Activity [11] was “inactive” and the Activity [12] was 19.86%. The “fold change (FC)” value [13] was -3.77, the viability at 1.09 µM [14] was 6.35% and the “fold change (FC)” value [15] was 2.74. The Activity [16] was “inactive”, the Activity [17] was “inactive” and the Activity [18] was “inactive”. The Activity [19] was “inactive”, the Activity [20] was “inactive” and the “fold change (FC)” value [21] was 1.13. For the same compound, the Activity [22] was “inactive”, the “fold change (FC)” value [23] was -3.1 and the Activity [24] was 49.24%. For the same compound, the Activity [25] was “inactive”, the “fold change (FC)” value [26] was 2.02 and the Activity [27] was “inactive”. The Activity [28] was “inactive”, the Activity [29] was “inactive” and the “fold change (FC)” value [30] was 2.54. For the same compound, the Activity [31] was “inactive”.
